For 1 compound, Ki results are on record in paper PMC12049414 (Nature Communications, 2025).

The target of the test is T1, human vesicular polyamine transporter (hVPAT) (Homo sapiens, UniProt Q6NT16).
T1 sequence (Q6NT16 1-456): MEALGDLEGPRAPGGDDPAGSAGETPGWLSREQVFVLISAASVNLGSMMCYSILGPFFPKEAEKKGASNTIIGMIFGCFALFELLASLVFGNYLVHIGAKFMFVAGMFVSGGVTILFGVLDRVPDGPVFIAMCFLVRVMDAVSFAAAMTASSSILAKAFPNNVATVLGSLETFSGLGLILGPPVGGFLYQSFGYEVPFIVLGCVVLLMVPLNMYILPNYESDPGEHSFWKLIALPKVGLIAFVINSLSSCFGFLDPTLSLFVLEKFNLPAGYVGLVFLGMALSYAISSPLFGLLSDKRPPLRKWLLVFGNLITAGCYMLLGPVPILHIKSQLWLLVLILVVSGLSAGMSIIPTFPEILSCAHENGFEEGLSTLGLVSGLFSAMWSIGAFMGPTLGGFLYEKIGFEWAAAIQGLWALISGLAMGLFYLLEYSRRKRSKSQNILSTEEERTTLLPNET
Nature of the test: cryo-EM structure at […] Å. Format: biochemical.

Usually Ki stands for the dissociation constant of the complex between target and ligand, obtained from inhibition or displacement. A high value points to a looser hold on the target. Take `COc1cc2c(cc1OC)C1CC(=O)C(CC(C)C)CN1CC2` (stereo not shown) [TBZ, tetrabenazine]: the Ki was determined as 2000 nM.
